The values that follow come from US12064522B2, “Low temperature process for preparing silicon oxide coated pharmaceuticals” (priority 2020, dated 2024).

SMILES strings stand for the structures.

The nature of this data set: Flowability (Flow Function, FF) of API particles. Format: physicochemical.
With `CC(=O)Nc1ccc(O)cc1` [Acetaminophen], the “Flowability (Flow Function; FF) of uncoated particles” value was 2.61. As for `CC(C)Cc1ccc(C(C)C(=O)O)cc1` (stereo not drawn) [ibuprofen], the figure is 4.23; as for `Cn1c(=O)c2[nH]cnc2n(C)c1=O` [theophylline], 10.
